Test results published in patent US6780972B2, “Method for the synthesis of peptide salts, their use and the pharmaceutical preparations, containing peptide salts” (Zentaris GmbH, priority 2000, dated 2004).
Non-standard residues stand in square brackets, D forms with d. Residues, ends and D or L forms follow the SMILES beside them. dPhe(4-Cl) = N[C@H](Cc1ccc(Cl)cc1)C(=O)O; d2Nal = N[C@H](Cc1ccc2ccccc2c1)C(=O)O; dCit = NC(=O)NCCC[C@@H](N)C(=O)O; d3Pal = N[C@H](Cc1cccnc1)C(=O)O

Legend:
[1] = Duration of effect / period of action after administration in man; assay type: in vivo
Protocol: (§1) The Cetrorelix embonate (2:1) lyophilysate (30 mg), obtained according to Example 1, is resuspended in 2 mL of water for injection purposes and can then be administered parenterally, preferable subcutaneously (s.c.) or intramuscularly (i.m.)
(§2) For the s.c. administration, the bioavailability of the Cetrorelix embonate (2:1) is about 30 to 50% (100%=intravenously administered Cetrolix acetate). […] The duration of the effect depends on the dose; for a dose of 30 to 150 mg, it is 2 to 8 weeks or longer. The inventive Cetrorelix embonate (2:1) lyophilysate has already been investigated in Clinical Phase I in man.
(§3) The period of action exceeded 700 hours. The plasma level was constant at about 2 ng/mL 150 hours after the administration. The bioavailability was abut 40%.

[2] = Cetrorelix plasma concentration and bioavailability after administration of the Cetrorelix embonate (2:1) lyophilysate in man (Clinical Phase I); assay type: in vivo
Protocol: as §1, §2, §3

Q: What does the source list for `CC(=O)N[C@H](Cc1ccc2ccccc2c1)C(=O)N[C@H](Cc1ccc(Cl)cc1)C(=O)N[C@H](Cc1cccnc1)C(=O)N[C@@H](CO)C(=O)N[C@@H](Cc1ccc(O)cc1)C(=O)N[C@H](CCCNC(N)=O)C(=O)N[C@@H](CC(C)C)C(=O)N[C@@H](CCCNC(=N)N)C(=O)N1CCC[C@H]1C(=O)N[C@H](C)C(N)=O` [Cetrorelix embonate (2:1), Cetrorelix embonate] (Ac-[d2Nal][dPhe(4-Cl)][d3Pal]SY[dCit]LRP[dA]-NH2; N-terminus and C-terminus assumed)?
A: period of action ([1]; 60 mg in man, FIG. 1): exceeded 700 hours; duration of the effect ([1]; dose of 30 to 150 mg, depends on the dose, 'or longer'): 2 to 8 weeks; burst effect (ca. 100 ng/mL) ([2]; 60 mg in man, FIG. 1): could not be detected; bioavailability ([2]; human, in vivo, subcutaneous, s.c. administration, 100% = intravenously administered Cetrolix acetate): 30 to 50%; bioavailability ([2]; human, plasma, 60 mg in man, FIG. 1): ~40%; level at 150 h ([2]; human, plasma, 60 mg in man, constant 150 hours after the administration, FIG. 1): ~2 ng/mL; burst effect ([2]; in patients): slight or even absent
